Format in all cases: cell-based
Experiment [1] has as its system KRAS G12D mutant human gastric cancer cell AGS. In words: 3D cell proliferation inhibition assay, AGS. Conditions: 168 h, 7 days, CTG, class symbols. Put shortly: (§1)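 For this 7-day anchorage-independent assay, 5×10^2 cells per well were exposed to 10000–0.026 nM test compound with 0.2% DMSO at 37 °C. ATP-based luminescence (CTG) gave viability, and percent inhibition versus DMSO controls was curve-fitted to obtain IC50.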

For another experiment, the target named is T1, KRAS-G12D (Homo sapiens, UniProt P01116, G12D).
T1 construct: endogenous in cells; host or cells: A-427 (ATCC), AGS, AsPc-1, Panc 04.03
T1 sequence (P01116 1-188 isoform P01116-2 G12D): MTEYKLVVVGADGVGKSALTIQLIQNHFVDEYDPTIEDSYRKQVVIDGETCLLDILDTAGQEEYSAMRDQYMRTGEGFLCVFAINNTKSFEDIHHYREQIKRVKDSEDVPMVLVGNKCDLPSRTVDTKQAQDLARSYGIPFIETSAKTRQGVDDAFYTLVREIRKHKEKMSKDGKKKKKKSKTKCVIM
In words: KRAS-G12D degradation assay (Western Blot), A-427 cells. Conditions: A427 cells, 24 h, class symbols; for Dmax: A-427. The method in brief:
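Western blotting of lysates (5 μg protein) quantified KRAS against a β-actin reference after 24 h exposure to compound at final 0.03–3000 nM in 0.25% DMSO. Cells were A-427, AGS, AsPc-1 or Panc 04.03, all KRAS G12D, at 5×10^5/well. Degradation versus control yielded DC50 and Dmax.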
A general note: A western blot detects proteins with antibodies after separation by electrophoresis.

Experiment [2] deals with KRAS G12D mutant human lung cancer cell A427. The experiment can be described thus: 3D cell proliferation inhibition assay, A427. Conditions: A-427, 168 h, A427, 7 days, CTG, class symbols. Put shortly:
as §1

For orientation: IC50 means the midpoint of a concentration-inhibition curve. A word on the DC50: it is the midpoint of the concentration-degradation curve. High values mean degradation only at high concentration, low ones degradation at low concentration. A word on the Dmax: it is the largest share of the target that was removed. With `C#Cc1c(F)ccc2cc(O)cc(-c3ncc4c(N5CC6CCC(C5)N6)nc(OCC56CC(CN7CCN(CC8CCC9(CC8)CCN(C(=O)c8ccc(Cl)c(N%10CCC(=O)NC%10=O)c8)CC9)CC7)(C5)C6)nc4c3F)c12` [Example 33, 1-(5-(9-((4-((3-(((4-(3,8-diazabicyclo[3.2.1]octan-3-yl)-7-(8-ethynyl-7-fluoro-3-hydroxynaphthalen-1-yl)-8-fluoropyrido[4,3-d]pyrimidin-2-yl)oxy)methyl)bicyclo[1.1.1]pentan-1-yl)methyl)piperazin-1-yl)methyl)-3-azaspiro[5.5]undecane-3-carbonyl)-2-chlorophenyl)dihydropyrimidine-2,4(1H,3H)-dione], the IC50 in experiment [1] was no more than 0.05 µM; in experiment [2] it was 0.1 to 0.5 µM. The DC50 on KRAS-G12D was no more than 0.05 µM. For the same compound, the Dmax on KRAS-G12D lay within 80 to 100%.

`C#Cc1c(F)ccc2cc(O)cc(-c3ncc4c(N5CC6CCC(C5)N6)nc(OC[C@@H]5CCCN5CCC5CCC6(CC5)CCN(C(=O)c5ccc(Cl)c(N7CCC(=O)NC7=O)c5)CC6)nc4c3F)c12` [Example 32, 1-(5-(9-(2-((S)-2-(((4-(3,8-diazabicyclo[3.2.1]octan-3-yl)-7-(8-ethynyl-7-fluoro-3-hydroxynaphthalen-1-yl)-8-fluoropyrido[4,3-d]pyrimidin-2-yl)oxy)methyl)pyrrolidin-1-yl)ethyl)-3-azaspiro[5.5]undecane-3-carbonyl)-2-chlorophenyl)dihydropyrimidine-2,4(1H,3H)-dione] displayed an IC50 in experiment [1] of 1 to 10 µM. Besides, at KRAS-G12D, the DC50 lay in the range of 1 to 10 µM and the Dmax is less than 30%. Further, the IC50 in experiment [2] lay within 1 to 10 µM.

The values are drawn from US20260166159A1, “KRAS G12D DEGRADATION AGENT, AND PREPARATION METHOD AND USE THEREFOR” (LEADINGTAC PHARMACEUTICAL (SHAOXING) CO., LTD., priority 2022, published 2026).
